In patent US8163767B2, “Heterocyclic Janus Kinase 3 inhibitors” (Astellas Pharma Inc., priority 2005, dated 2012):
Where a name gives a salt, the structure may show the parent alone.

Biological target: T1, human JAK3 (Homo sapiens, UniProt P52333)
T1 construct: His (N); purchased Carna Bioscience Inc. (Kobe, Japan); host or cells: baculovirus expression system
Test: Determination of Janus Kinase 3 (JAK3) inhibitory activity
Assay type: biochemical
Conditions: JAK3 inhibitory activity
Description: Test 1: Determination of Janus Kinase 3 (JAK3) Inhibitory Activity
The assay for JAK3 activity was performed basically according to the method as proposed by Okimoto et al, as follows.
Purified kinase domain (KD) of human JAK3 was purchased from Carna Bioscience Inc. (Kobe, Japan). 796-1124 (end) amino acids of human JAK3 [accession number #NM_000215] was expressed as N-terminal His-tagged protein (41 kDa) using the baculovirus expression system and purified by using Ni-NTA affinity chromatography.
Biotin-Lyn-Substrate-peptide and ATP were used as substrates. Assay buffer consisted of 15 mM Tris-HCl pH7.5, 0.01% Tween 20 and 2 mM DTT. For the standard assay, 20 μL of substrate solution (Assay buffer containing 627 nM Biotin-Lyn-Substrate-2, 20 μM ATP and 25 mM MgCl2), 10 μL of assay buffer containing test compound and 20 μL of enzyme solution were added to the plate and mixed well.
After 1 hour incubation at ambient temperature, the plate was washed 4 times with wash buffer (50 mM Tris-HCl pH 7.5, 150 mM NaCl, 0.02% Tween 20), and then blocking buffer (wash buffer containing 0.1% Bovine serum albumin) was added to the plate. After 30 minutes incubation at ambient temperature, blocking buffer was removed and HRP-PY-20 solution (HRP-PY-20 500 times diluted with blocking buffer) was added. After 30 minutes incubation at ambient temperature, the plate was washed 4 times and TMB substrate solution (Sigma) was added to the plate. After 4 minutes incubation at ambient temperature, 1 M H2SO4 was added to the plate to stop the reaction. Enzyme activity was measured as optical density at 450 nm.

T1 sequence (P52333 796-1124): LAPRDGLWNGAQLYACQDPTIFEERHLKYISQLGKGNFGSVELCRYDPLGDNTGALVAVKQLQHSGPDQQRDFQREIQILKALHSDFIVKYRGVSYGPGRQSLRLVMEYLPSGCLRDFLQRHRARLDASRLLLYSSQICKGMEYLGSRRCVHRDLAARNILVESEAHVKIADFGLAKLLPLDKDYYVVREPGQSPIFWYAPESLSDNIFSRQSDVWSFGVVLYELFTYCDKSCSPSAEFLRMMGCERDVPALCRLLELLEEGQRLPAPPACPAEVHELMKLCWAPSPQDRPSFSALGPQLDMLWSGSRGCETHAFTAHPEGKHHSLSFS

Compound	IC50 [nM]
C[C@@H]1CCCC[C@@H]1Nc1c(C(N)=O)cnc2[nH]ccc12 [Example 106, 4-{[(1S,2R)-2-Methylcyclohexyl]amino}-1H-pyrrolo[2,3-b]-pyridine-5-carboxamide]	3
C[C@@H]1CCCC[C@@H]1n1c(=O)[nH]c2cnc3[nH]ccc3c21 [Example 112, 1-[(1S,2R)-2-methylcyclohexyl]-3,6-dihydroimidazo[4,5-d]pyrrolo[2,3-b]pyridin-2(1H)-one]	3
CC[C@@H]1CCCC[C@@H]1n1c(=O)[nH]c2cnc3[nH]ccc3c21 [Example 118, 1-[(1S,2R)-2-Ethylcyclohexyl]-3,6-dihydroimidazo[4,5-d]pyrrolo-[2,3-b]pyridin-2(1H)-one hydrochloride]	5.1

Same assay, conditions: read-out: IR (JAK3 inhibition rate)

Compound	inhibition at 0.01 µM [%]
CC[C@@H]1CCCC[C@@H]1n1c(=O)[nH]c2cnc3[nH]ccc3c21 [Example 118, 1-[(1S,2R)-2-Ethylcyclohexyl]-3,6-dihydroimidazo[4,5-d]pyrrolo-[2,3-b]pyridin-2(1H)-one hydrochloride]	> 50

Same assay, conditions: test compound 10^−5M; read-out: IR (JAK3 inhibition rate)

Compound	inhibition at 10 µM [%]
CCOC(=O)c1cnc2[nH]ccc2c1N(C)[C@H]1CCCC[C@H]1C [Example 1, ethyl 4-{methyl[(1S,2R)-2-methylcyclohexyl]amino}-1H-pyrrolo[2,3-b]pyridine-5-carboxylate]	> 50
CN(c1c(C(N)=O)cnc2[nH]ccc12)C1CCCCC1 [Example 4, 4-[Cyclohexyl(methyl)amino]-1H-pyrrolo[2,3-b]pyridine-5-carboxamide]	> 50
C[C@@H]1CCCC[C@@H]1N(C)c1c(C#N)cnc2[nH]ccc12 [Example 5, 4-{Methyl[(1S,2R)-2-methylcyclohexyl]amino}-1H-pyrrolo[2,3-b]-pyridine-5-carbonitrile]	> 50
NC(=O)c1cnc2[nH]ccc2c1NC1CCCC1 [Example 6, 4-(Cyclopentylamino)-1H-pyrrolo[2,3-b]pyridine-5-carboxamide]	> 50
C[C@@H]1CCCC[C@@H]1Nc1c(C#N)cnc2[nH]ccc12 [Example 15, 4-{[(1S,2R)-2-Methylcyclohexyl]amino}-1H-pyrrolo[2,3-b]-pyridine-5-carbonitrile]	> 50
O=C(O)c1cnc2[nH]ccc2c1NC1CCCCC1 [Example 96, 4-(cyclohexylamino)-1H-pyrrolo[2,3-b]pyridine-5-carboxylic acid]	> 50
NC(=O)c1cnc2[nH]ccc2c1N[C@@H]1CCCC[C@@H]1CO [Example 109, 4-{[(1R,2S)-2-(Hydroxymethyl)cyclohexyl]amino}-1H-pyrrolo-[2,3-b]pyridine-5-carboxamide]	> 50
C[C@@H]1CCCC[C@@H]1N(C)c1ccnc2[nH]cnc12 [Example 156, N-Methyl-N-[(1S,2R)-2-methylcyclohexyl]-3H-imidazo[4,5-b]-pyridin-7-amine]	> 50
CNC(=O)c1cnc2[nH]ccc2c1NC1CCCCC1 [Example 187, 4-(cyclohexylamino)-N-methyl-1H-pyrrolo[2,3-b]pyridine-5-carboxamide]	> 50
O=C(Nc1ccccc1)c1cnc2[nH]ccc2c1NC1CCCCC1 [Example 192, 4-(Cyclohexylamino)-N-phenyl-1H-pyrrolo[2,3-b]pyridine-5-carboxamide]	> 50
CN(c1ccnc2nc[nH]c12)C1CCCCC1 [Example 209, N-cyclohexyl-N-methyl-1H-imidazo[4,5-b]pyridin-7-amine]	> 50
CN(c1ccnc2[nH]cc([N+](=O)[O-])c12)C1CCCCC1 [Example 210, N-cyclohexyl-N-methyl-3-nitro-1H-pyrrolo[2,3-b]pyridin-4-amine]	> 50
CN(c1ccnc2[nH]ccc12)C1CCCCC1 [Example 211, N-cyclohexyl-N-methyl-1H-pyrrolo[2,3-b]pyridin-4-amine]	> 50
CN(c1ccnc2[nH]cc(C#N)c12)C1CCCCC1 [Example 212, 4-[cyclohexyl(methyl)amino]-1H-pyrrolo[2,3-b]pyridine-3-carbonitrile]	> 50
CN(c1c(F)cnc2[nH]ccc12)C1CCCCC1 [Example 214, N-cyclohexyl-5-fluoro-N-methyl-1H-pyrrolo[2,3-b]pyridin-4-amine]	> 50
Fc1cnc2[nH]ccc2c1NC1CCCCC1 [Example 222, N-cyclohexyl-5-fluoro-1H-pyrrolo[2,3-b]pyridin-4-amine]	> 50
Fc1cnc2[nH]ccc2c1N1CCCCC1 [Example 223, 5-fluoro-4-(1-piperidinyl)-1H-pyrrolo[2,3-b]pyridine]	> 50
C[C@@H]1CCCC[C@@H]1Nc1c(F)cnc2[nH]ccc12 [Example 225, 5-fluoro-N-[(1S,2R)-2-methylcyclohexyl]-1H-pyrrolo[2,3-b]pyridin-4-amine]	> 50

Same assay, conditions: test compound 10^−8M; read-out: IR (JAK3 inhibition rate)

Compound	inhibition at 0.01 µM [%]
C[C@@H]1CCN(C(=O)c2ccc(Cl)s2)C[C@@H]1n1c(=O)[nH]c2cnc3[nH]ccc3c21 (relative stereo) [Example 170, rel-1-{(3R,4R)-1-[(5-Chloro-2-thienyl)carbonyl]-4-methyl-3-piperidinyl}-3,6-dihydroimidazo[4,5-d]pyrrolo[2,3-b]pyridin-2(1H)-one]	> 50
C[C@@H]1CCN(C(=O)CC#N)C[C@@H]1n1c(=O)[nH]c2cnc3[nH]ccc3c21 (relative stereo) [Example 189, rel-3-[(3R,4R)-4-Methyl-3-(2-oxo-3,6-dihydroimidazo[4,5-d]pyrrolo-[2,3-b]pyridin-1(2H)-yl)-1-piperidinyl]-3-oxopropanenitrile]	> 50
C[C@@H]1CCN(C(=O)N2CCC(F)(F)C2)C[C@@H]1n1c(=O)[nH]c2cnc3[nH]ccc3c21 (relative stereo) [Example 274, rel-1-{(3R,4R)-1-[(3,3-difluoropyrrolidin-1-yl)carbonyl]-4-methylpiperidin-3-yl}-3,6-dihydroimidazo[4,5-d]pyrrolo[2,3-b]pyridin-2(1H)-one]	> 50
C[C@@H]1CCN(c2ccc(C#N)cn2)C[C@@H]1n1c(=O)[nH]c2cnc3[nH]ccc3c21 (relative stereo) [Example 323, rel-6-[(3R,4R)-4-Methyl-3-(2-oxo-3,6-dihydroimidazo[4,5-d]-pyrrolo[2,3-b]pyridin-1(2H)-yl)piperidin-1-yl]nicotinonitrile]	> 50
N#Cc1ccc(N2CCC(Nc3c(C(N)=O)cnc4[nH]ccc34)CC2)nc1 [Example 17, 4-{[1-(5-Cyano-2-pyridinyl)-4-piperidinyl]amino}-1H-pyrrolo-[2,3-b]pyridine-5-carboxamide]	> 50
CC(C)[C@@H](C)Nc1c(C(N)=O)cnc2[nH]ccc12 [Example 18, 4-{[(1R)-1,2-Dimethylpropyl]amino}-1H-pyrrolo[2,3-b]pyridine-5-carboxamide]	> 50
C[C@@H]1CCCC[C@@H]1Nc1c(C(N)=O)cnc2[nH]ccc12 [Example 106, 4-{[(1S,2R)-2-Methylcyclohexyl]amino}-1H-pyrrolo[2,3-b]-pyridine-5-carboxamide]	> 50
C[C@@H]1CCCC[C@@H]1n1c(=O)[nH]c2cnc3[nH]ccc3c21 [Example 112, 1-[(1S,2R)-2-methylcyclohexyl]-3,6-dihydroimidazo[4,5-d]pyrrolo[2,3-b]pyridin-2(1H)-one]	> 50
CC1CCN(C(=O)C2(C#N)CC2)CC1n1c(=O)[nH]c2cnc3[nH]ccc3c21 (centres unmarked) [Example 175, 1-{[4-Methyl-3-(2-oxo-3,6-dihydroimidazo[4,5-d]pyrrolo[2,3-b]-pyridin-1(2H)-yl)-1-piperidinyl]carbonyl}cyclopropane-carbonitrile]	> 50
C[C@@H]1CCN(c2ccc(C#N)cn2)C[C@@H]1n1c(=O)[nH]c2cnc3[nH]ccc3c21 [Example 240, 6-[(3R,4R)-4-Methyl-3-(2-oxo-3,6-dihydroimidazo[4,5-d]pyrrolo[2,3-b]pyridin-1(2H)-yl)-1-piperidinyl]nicotinonitrile]	> 50
